Drawing on ChEMBL document CHEMBL2429799, “Systematic replacement of amides by 1,4-disubstituted[1,2,3]triazoles in Leu-enkephalin and the impact on the delta opioid receptor activity” (Bioorg Med Chem Lett, 2013), this text covers Ki, EC50 and Activity for 4 compounds.

A word on the Ki: it is a dissociation constant, usually derived from enzyme kinetics or from competition with a known ligand. Low values mean a stronger hold on the target, high ones a looser hold on the target. As usually defined, the EC50 is the concentration giving half of the maximal effect.

The source made the active and inactive calls. The rule behind the calls is not given here. Bounds are passed on as bounds.

Experiment [1] deals with Delta-type opioid receptor (Rattus norvegicus, UniProt P33533). Put plainly: Displacement of [3H]-deltorphin 2 from delta opioid receptor in rat GH3 cells after 60 mins by scintillation counting analysis. The class given is cell-based. (Displacement assays read how much labelled ligand stays bound in the presence of the test substance.)
The target in experiment [2] is Delta-type opioid receptor (Mus musculus, UniProt P32300). Put plainly: Agonist activity at delta opioid receptor in mouse vas deferens assessed as inhibition of electrically-stimulated muscle contraction.
The nature of experiment [3]: Agonist activity at delta opioid receptor in mouse/rat DRGF11 hybrid cells expressing GFP assessed as induction of ERK1/2 phosphorylation at 10^-9 to 10^-5 M after 5 mins by Western blotting analysis. On the technique in general: In western blotting, separated proteins are transferred to a membrane and probed.

Sequence of Delta-type opioid receptor (Rattus norvegicus, UniProt P33533) (P33533 whole entry): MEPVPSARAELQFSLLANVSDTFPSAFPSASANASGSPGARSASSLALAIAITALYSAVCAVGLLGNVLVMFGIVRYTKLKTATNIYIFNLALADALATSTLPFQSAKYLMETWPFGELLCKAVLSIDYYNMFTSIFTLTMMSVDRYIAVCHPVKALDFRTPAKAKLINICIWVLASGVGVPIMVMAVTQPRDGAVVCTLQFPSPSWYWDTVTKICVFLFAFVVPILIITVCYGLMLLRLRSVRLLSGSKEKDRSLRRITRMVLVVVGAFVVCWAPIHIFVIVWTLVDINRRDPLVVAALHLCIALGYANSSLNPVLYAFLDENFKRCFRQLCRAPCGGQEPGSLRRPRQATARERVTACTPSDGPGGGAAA
Sequence of Delta-type opioid receptor (Mus musculus, UniProt P32300) (P32300 whole entry): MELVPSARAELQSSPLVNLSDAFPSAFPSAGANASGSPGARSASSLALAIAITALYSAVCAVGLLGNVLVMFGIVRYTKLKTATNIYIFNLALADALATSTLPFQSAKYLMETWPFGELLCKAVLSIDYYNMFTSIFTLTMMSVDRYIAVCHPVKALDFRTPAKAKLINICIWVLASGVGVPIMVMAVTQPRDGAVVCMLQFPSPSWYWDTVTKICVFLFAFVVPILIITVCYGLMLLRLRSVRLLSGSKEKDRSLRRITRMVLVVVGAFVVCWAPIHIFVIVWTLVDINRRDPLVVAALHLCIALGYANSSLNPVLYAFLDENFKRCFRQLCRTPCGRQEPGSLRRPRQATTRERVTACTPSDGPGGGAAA

The compound `CC(C)C[C@H](NC(=O)[C@H](Cc1ccccc1)n1cc(CNC(=O)CNC(=O)[C@@H](N)Cc2ccc(O)cc2)nn1)C(=O)O` returned a Ki in experiment [1] of 460 nM. In addition, the concentration giving a half-maximal response (EC50) in experiment [2] was more than 1500 nM.
The matching figures for `CC(C)C[C@H](NC(=O)[C@H](Cc1ccccc1)NC(=O)CNC(=O)Cn1cc([C@@H](N)Cc2ccc(O)cc2)nn1)C(=O)O`: more than 1000 nM and more than 1500 nM.
`CC(C)C[C@H](NC(=O)[C@H](Cc1ccccc1)NC(=O)Cn1cc(CNC(=O)[C@@H](N)Cc2ccc(O)cc2)nn1)C(=O)O` returned a Ki in experiment [1] of more than 1000 nM. The concentration for a half-maximal effect (EC50) in experiment [2] is more than 1500 nM.
In turn, `CC(C)C[C@@H](C(=O)O)n1cc([C@H](Cc2ccccc2)NC(=O)CNC(=O)CNC(=O)[C@@H](N)Cc2ccc(O)cc2)nn1` displayed an inhibition constant Ki in experiment [1] of 89 nM. The outcome in experiment [3] was Active. Moreover, the EC50 in experiment [2] was found to be 830 nM.
